# The supplement of paper PMC10307832
# Columns and labels:
# Assay in all cases: relative viability (nuclei count vs DMSO), 5 days (fraction); higher = more cells survive
# [1] = compound: C#Cc1cccc(Nc2ncnc3cc(OCCOC)c(OCCOC)cc23)c1 [Erlotinib]
# Procedure, shortened: (§1)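 Lung cancer cell lines in 1536-well plates were exposed by pinning to five library-drug doses (not always all listed) √10 apart, following an overnight hold at 37 °C. MetaXpress counted Hoechst-stained nuclei from 4× images taken after 5 days without medium change. Viability is the median ratio of treated-well to vehicle-well nuclei across plates. Plates required control CV below 25% and at least one doubling.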
# [2] = compound: N=C(N)NC(=N)NCCc1ccccc1 [Phenformin] (anchor plate); details: 250 µM
# Procedure, shortened: as §1
# [3] = compound: O=C(Nc1c[nH]nc1-c1nc2ccc(CN3CCOCC3)cc2[nH]1)NC1CC1 [AT9283]
# Procedure, shortened: as §1
# [4] = compound: C#Cc1cccc(Nc2ncnc3cc(OCCOC)c(OCCOC)cc23)c1 [Erlotinib] + CC(C)C[C@H](NC(=O)[C@H](Cc1ccccc1)NC(=O)c1cnccn1)B(O)O [Bortezomib] (partner 0.002 µM)
# Procedure, shortened: (§2)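 Relative viability was taken as the ratio of nuclei in treated wells to nuclei in vehicle wells. Lung cancer cell lines in 1536-well plates received compounds by pin tool one day after seeding, either one drug alone or a fixed anchor-drug dose plus five library-drug doses (not always all listed) in √10 steps. Nuclei were counted on 4× images after 5 days of treatment, and values are medians of duplicate plates.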
# [5] = compound: C#Cc1cccc(Nc2ncnc3cc(OCCOC)c(OCCOC)cc23)c1 [Erlotinib] + NC(=O)Nc1cc(-c2cccc(F)c2)sc1C(=O)N[C@H]1CCCNC1 [AZD7762] (partner 0.2 µM)
# Procedure, shortened: as §2
# [6] = compound: O=C(Nc1c[nH]nc1-c1nc2ccc(CN3CCOCC3)cc2[nH]1)NC1CC1 [AT9283] + NC(=O)Nc1cc(-c2cccc(F)c2)sc1C(=O)N[C@H]1CCCNC1 [AZD7762] (partner 0.2 µM)
# Procedure, shortened: as §2
cell line,measurement,setting,value
NCI-H441,relative viability,[1]; 0.2 µM,1.1
same,relative viability,[1]; 0.6325 µM,1.05
same,relative viability,[1]; 2 µM,0.848
same,relative viability,[2],0.87
same,relative viability,[3]; 0.003 µM,1.09
same,relative viability,[3]; 0.03 µM,0.856
same,relative viability,[3]; 0.09487 µM,0.37
same,relative viability,[3]; 0.3 µM,0.337
same,relative viability,[4]; first compound 0.02 µM,0.724
same,relative viability,[4]; first compound 0.2 µM,0.471
same,relative viability,[4]; first compound 0.6325 µM,0.383
same,relative viability,[4]; first compound 2 µM,0.219
same,relative viability,[5]; first compound 0.02 µM,1.2
same,relative viability,[5]; first compound 0.2 µM,1.06
same,relative viability,[5]; first compound 0.6325 µM,1.1
same,relative viability,[5]; first compound 2 µM,1.11
same,relative viability,[6]; first compound 0.003 µM,1.06
same,relative viability,[6]; first compound 0.03 µM,1.1
same,relative viability,[6]; first compound 0.09487 µM,0.894
same,relative viability,[6]; first compound 0.3 µM,0.633
